Measured values from patent US20080318943A1, “Compounds and Uses Thereof - 848” (ASTRAZENECA AB, priority 2007, published 2008).

Key:
GABAA receptor α1β2γ2 = molecular target: T1, GABAA receptor α1β2γ2 (Homo sapiens, UniProt P14867+P18507); assay: Two-electrode voltage-clamp potentiation of GABA EC10 current in Xenopus oocytes, GABAA1; type: cell-based; conditions: percentage potentiation of GABA EC10 current divided by that of diazepam
T1 construct: expressed in transfected cells; host or cells: Xenopus laevis oocytes injected with cRNA
Method in brief: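 Human GABAA receptors expressed in Xenopus oocytes by cRNA injection (α:β:γ molar ratio ~1:1:10 for α1β2γ2, 1:1:1 for α2β3γ2), recorded 2-10 days later by two-electrode voltage clamp at −60 mV in ND-96, pH 7.5. Modulator preapplied 30 s before GABA at per-oocyte EC10. Peak-current percent potentiation over GABA alone, normalised to diazepam.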

[1] = molecular target: T2, GABAA2 receptors (α2, β3, γ2 receptor subunits transfected into Sf9 cells) (Homo sapiens, UniProt P18507+P47869); assay: GABAA2 Binding Method ([3H]-Flunitrazepam displacement); conditions: [3H]-Flunitrazepam ~2 nM, α2β3γ2 Sf9 membranes, 1 hr at 4° C.
T2 construct: host or cells: Sf9 cells (membranes)
Method in brief: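 Displacement of [3H]-flunitrazepam (~2 nM in assay) from recombinant human α2β3γ2 receptors in Sf9 membranes; 1 h incubation at 4 °C, harvest by filtration. Values reported as percent of control, IC50 and Ki.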

GABAA receptor α2β3γ2 = molecular target: T3, GABAA receptor α2β3γ2 (Homo sapiens, UniProt P18507+P47869); assay: Two-electrode voltage-clamp potentiation of GABA EC10 current in Xenopus oocytes, GABAA2; type: cell-based; conditions: percentage potentiation of GABA EC10 current divided by that of diazepam
T3 construct: expressed in transfected cells; host or cells: Xenopus laevis oocytes injected with cRNA
Description: GABAA receptors were heterologously expressed in Xenopus oocytes by injecting cRNA corresponding to human α1, α2, α3, α5, β2, P3 and γ2 subunits of the GABAA receptor genes. The specific subunit combinations (subtypes) were as follows: α1β2γ2, α2β3γ2, α3β3γ2, and α5β3γ2. The EC10 of GABA is approximated for each cell. Stability of GABA-mediated (EC10) current is established. Modulatory effect of test compound is determined and compared across subtypes. […] Thus, the assay can characterize modulatory effects and determine subtype selectivity of test compounds on major subtypes of GABAA receptors.
Xenopus laevis frogs (Xenopus I, Kalamazoo, Mich.) were anesthetized using 0.15% tricaine. Surgically removed ovarian lobes were teased out in OR2 solution (82 NaCl, 2.5 KCl, 5 HEPES, 1.5 NaH2PO4, 1 MgCl2, 0.1 EDTA, in mM, pH 7.4). The oocytes were defolliculated by incubation in 25 mL OR2 containing 0.2% collagenase 1A (SIGMA) two times for about 60 minutes on a platform shaker and stored in Leibovitz's L-15 medium. Oocytes were injected the following day in 0.5× Leibovitz's L-15 medium containing […] gentamycin, 10 units/ml penicillin, and […] streptomycin.
Capped cRNAs from the linearized vectors containing human α1, β2 and γ2 subunits of the GABAA receptor genes were mixed in ratio of […]. Oocytes were injected with 25-50 nL of mixed RNA with an appx molar ratio for α1, β2, and γ2 as 1:1:10. Oocyte recordings were done 2-10 days after injection. The same methods apply to subtypes derived from α2β3γ2, α3β3γ2, and α5β3γ2, except for 1:1:1 ratio was used for α, β, and γ subunits.
All measurements were done in a medium containing ND-96 (96 NaCl, 2 KCl, 1.8 CaCl2.2H2O, 1 MgCl2.6H2O, 5 HEPES, in mM, pH 7.5). Two-electrode voltage-clamp recording was carried out using OpusXpress amplifier (Axon Instruments, Foster City, Calif.), which allows simultaneous recording from 8 oocytes. Oocytes were impaled with two electrodes of 1-2 MΩ tip resistance when filled with 3M KCl. Recordings were begun when membrane potential became stable at potentials negative to −50-−60 mV. Membrane potential was held at −60 mV. […] The concentration of GABA corresponded to the EC10 value calculated for each oocyte. The modulator pulses started 30 s before the GABA pulse so as to allow preincubation with the modulator. A set of 3 pulses with just GABA without modulator was given prior to the modulator-containing pulses to define the baseline GABA response. Two oocytes per each experiment were dedicated to observe the effect of diazepam on GABA response to ensure the presence of γ2 subunit in the GABAA pentameric complex, which imparts diazepam sensitivity to the complex.
Current amplitude (i) was measured from baseline to peak using Clampfit (Axon Inst., Foster City, Calif.). Potentiation was calculated as percent change from the baseline GABA current flux 100×(imod/icontrol)−1) where imod=current mediated by modulator+GABA and icontrol=current mediated by GABA alone. […] Similarly, a value of −50% potentiation means the presence of modulator caused a 50% decrease in the control current. Various other data shown here were fitted and plotted using GraphPad Prism (GraphPad Software, Inc. San Diego, Calif.). The percentage potentiation was converted to relative potentiation by dividing it with percentage potentiation value obtained from the same assay with diazepam as a control.

[2] = listed as 9-Amino-2-cyclobutyl-5-((P)-2-fluoro-6-methoxyphenyl)-2,3-dihydro-pyrrolo[3,4-b]
[3] = listed as 9-Amino-2-cyclobutyl-5-((M)-2-fluoro-6-methoxyphenyl)-2,3-dihydro-pyrrolo[3,4-b]

T1 sequence (P14867 28-456): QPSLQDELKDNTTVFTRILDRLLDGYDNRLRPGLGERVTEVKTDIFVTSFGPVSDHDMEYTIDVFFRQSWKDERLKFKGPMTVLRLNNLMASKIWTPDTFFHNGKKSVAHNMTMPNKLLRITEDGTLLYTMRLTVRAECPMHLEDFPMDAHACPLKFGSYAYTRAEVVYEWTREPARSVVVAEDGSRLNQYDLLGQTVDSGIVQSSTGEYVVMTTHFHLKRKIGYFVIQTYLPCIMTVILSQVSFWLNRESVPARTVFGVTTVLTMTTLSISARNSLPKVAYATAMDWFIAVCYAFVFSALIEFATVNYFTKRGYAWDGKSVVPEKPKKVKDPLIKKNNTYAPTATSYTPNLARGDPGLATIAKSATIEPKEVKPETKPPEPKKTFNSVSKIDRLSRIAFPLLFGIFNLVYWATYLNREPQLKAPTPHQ
T1 sequence (P47870 25-512 partner limits assumed): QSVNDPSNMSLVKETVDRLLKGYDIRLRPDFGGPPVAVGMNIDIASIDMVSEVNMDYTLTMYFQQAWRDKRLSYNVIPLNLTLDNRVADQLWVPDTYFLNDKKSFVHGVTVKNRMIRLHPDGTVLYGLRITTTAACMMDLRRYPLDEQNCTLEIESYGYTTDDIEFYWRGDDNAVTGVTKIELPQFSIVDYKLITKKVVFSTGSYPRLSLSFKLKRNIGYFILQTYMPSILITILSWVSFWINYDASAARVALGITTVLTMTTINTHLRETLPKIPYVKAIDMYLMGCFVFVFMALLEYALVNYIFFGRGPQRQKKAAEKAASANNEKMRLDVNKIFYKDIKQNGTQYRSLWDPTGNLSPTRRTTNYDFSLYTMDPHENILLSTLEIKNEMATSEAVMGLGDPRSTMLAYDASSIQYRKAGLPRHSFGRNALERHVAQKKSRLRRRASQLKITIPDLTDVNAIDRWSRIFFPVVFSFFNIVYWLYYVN
T1 sequence (P18507 40-475): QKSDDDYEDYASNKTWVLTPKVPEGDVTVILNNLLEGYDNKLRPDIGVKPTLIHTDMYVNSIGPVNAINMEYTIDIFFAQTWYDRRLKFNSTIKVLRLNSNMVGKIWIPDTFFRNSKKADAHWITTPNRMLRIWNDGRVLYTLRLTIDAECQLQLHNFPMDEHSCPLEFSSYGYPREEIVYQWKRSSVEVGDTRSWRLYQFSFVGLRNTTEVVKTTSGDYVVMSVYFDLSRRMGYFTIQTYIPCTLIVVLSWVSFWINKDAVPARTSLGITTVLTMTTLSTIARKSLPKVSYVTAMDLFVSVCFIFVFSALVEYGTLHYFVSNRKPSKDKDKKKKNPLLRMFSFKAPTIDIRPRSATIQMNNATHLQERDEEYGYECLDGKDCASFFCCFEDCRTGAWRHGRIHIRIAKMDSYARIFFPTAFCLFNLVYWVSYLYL
T3 sequence (P47869 29-451): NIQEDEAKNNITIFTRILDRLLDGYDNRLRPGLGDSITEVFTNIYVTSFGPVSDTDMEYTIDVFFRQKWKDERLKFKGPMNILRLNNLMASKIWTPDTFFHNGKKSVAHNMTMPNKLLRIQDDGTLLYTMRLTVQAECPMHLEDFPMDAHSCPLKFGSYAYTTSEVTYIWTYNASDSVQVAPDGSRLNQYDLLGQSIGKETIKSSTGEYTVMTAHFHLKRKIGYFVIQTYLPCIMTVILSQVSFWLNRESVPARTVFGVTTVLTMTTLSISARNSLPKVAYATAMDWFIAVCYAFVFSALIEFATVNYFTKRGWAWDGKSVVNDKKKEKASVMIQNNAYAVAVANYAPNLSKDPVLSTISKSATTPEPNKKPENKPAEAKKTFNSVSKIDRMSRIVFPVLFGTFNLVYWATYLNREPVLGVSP
T3 sequence (P28472 26-473 partner): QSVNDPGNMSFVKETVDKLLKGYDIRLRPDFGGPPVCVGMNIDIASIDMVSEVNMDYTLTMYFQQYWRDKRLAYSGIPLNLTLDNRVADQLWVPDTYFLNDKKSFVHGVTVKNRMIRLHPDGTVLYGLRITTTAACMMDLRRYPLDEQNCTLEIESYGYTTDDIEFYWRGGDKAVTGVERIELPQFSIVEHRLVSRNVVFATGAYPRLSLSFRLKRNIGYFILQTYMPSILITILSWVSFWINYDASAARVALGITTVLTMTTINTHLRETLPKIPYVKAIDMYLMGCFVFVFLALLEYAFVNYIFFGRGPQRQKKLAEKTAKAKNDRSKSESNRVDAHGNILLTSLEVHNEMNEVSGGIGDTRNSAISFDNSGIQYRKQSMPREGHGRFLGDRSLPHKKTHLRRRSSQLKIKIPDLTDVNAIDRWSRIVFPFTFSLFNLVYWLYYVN
T3 sequence (P18507 40-475): as the sequence (P18507 40-475) above
T2 sequence (P47869 29-451): as the sequence (P47869 29-451) above
T2 sequence (P28472 26-473 partner): as the sequence (P28472 26-473 partner) above
T2 sequence (P18507 40-475): as the sequence (P18507 40-475) above

Row | Compound | Relative Potentiation for GABAA1 (GABAA receptor α1β2γ2) | Ki [1] | Relative Potentiation for GABAA2 (GABAA receptor α2β3γ2) | Relative Potentiation for GABAA1 (GABAA receptor α1β2γ2; [2]) | Relative Potentiation for GABAA2 (GABAA receptor α2β3γ2; [2]) | Relative Potentiation for GABAA1 (GABAA receptor α1β2γ2; [3]) | Relative Potentiation for GABAA2 (GABAA receptor α2β3γ2; [3])
1 | COc1cccc(F)c1-c1cccc2c(N)c3c(nc12)CN([C@H]1C[C@@H](C)C1)C3=O | 0.054 | 0.945 nM | 0.39 | – | – | – | –
2 | COc1ncccc1-c1cccc2c(N)c3c(nc12)CN([C@H]1C[C@@H](C)C1)C3=O | 0.085 | 1.29 nM | 0.51 | – | – | – | –
3 | COc1ccc(-c2cccc3c(N)c4c(nc23)CN([C@H]2C[C@@H](C)C2)C4=O)c(C)n1 | 0.14 | 4.65 nM | 0.3 | – | – | – | –
4 | COc1ncccc1-c1c(F)ccc2c(N)c3c(nc12)CN(C1CCOC1)C3=O (stereo not shown) | 0.097 | 18.8 nM | 0.32 | – | – | – | –
5 | CCCN1Cc2nc3c(-c4ccccc4C#N)cccc3c(N)c2C1=O [2-(9-amino-1-oxo-2-propyl-2,3-dihydro-1H-pyrrolo[3,4-b]quinolin-5-yl)benzonitrile] | 0.15 | 30.7 nM | 0.21 | – | – | – | –
6 | N#Cc1cncc(-c2cccc3c(N)c4c(nc23)CN(C2CCC2)C4=O)c1 [5-(9-Amino-2-cyclobutyl-1-oxo-2,3-dihydro-1H-pyrrolo[3,4-b]quinolin-5-yl)-nicotinonitrile] | 0.048 | 5.85 nM | 0.21 | – | – | – | –
7 | COc1ccc(CN2Cc3nc4c(-c5c(F)cccc5OC)cccc4c(N)c3C2=O)cc1Cl [9-Amino-2-(3-chloro-4-methoxybenzyl)-5-(2-fluoro-6-methoxyphenyl)-2,3-dihydropyrrolo[3,4-b]quinolin-1-one] | 0.088 | 10.3 nM | 0.15 | – | – | – | –
8 | COc1ccc(-c2cccc3c(N)c4c(nc23)CN(C)C4=O)c(OC)n1 [9-Amino-5-(2,6-dimethoxypyridin-3-yl)-2-methyl-2,3-dihydropyrrolo[3,4-b]quinolin-1-one] | – | 290 nM | 0.19 | – | – | – | –
9 | CCN1Cc2nc3c(-c4ccc(OC)nc4OC)cccc3c(N)c2C1=O [Example 27, 9-Amino-5-(2,6-dimethoxypyridin-3-yl)-2-ethyl-2,3-dihydropyrrolo[3,4-b]quinolin-1-one] | – | 50.1 nM | 0.18 | – | – | – | –
10 | CCCN1Cc2nc3c(-c4cccnc4)cccc3c(N)c2C1=O [Example 40, 9-Amino-2-propyl-5-pyridin-3-yl-2,3-dihydropyrrolo[3,4-b]quinolin-1-one] | – | 46.5 nM | 0.27 | – | – | – | –
11 | CCCCN1Cc2nc3c(-c4ccc(OC)nc4OC)cccc3c(N)c2C1=O [Example 43, 9-Amino-2-butyl-5-(2,6-dimethoxypyridin-3-yl)-2,3-dihydropyrrolo[3,4-b]quinolin-1-one] | – | 45 nM | 0.37 | – | – | – | –

Next, values leading:

Row | Relative Potentiation for GABAA1 (GABAA receptor α1β2γ2) | Ki [1] | Relative Potentiation for GABAA2 (GABAA receptor α2β3γ2) | Relative Potentiation for GABAA1 (GABAA receptor α1β2γ2; [2]) | Relative Potentiation for GABAA2 (GABAA receptor α2β3γ2; [2]) | Relative Potentiation for GABAA1 (GABAA receptor α1β2γ2; [3]) | Relative Potentiation for GABAA2 (GABAA receptor α2β3γ2; [3]) | Compound
12 | −0.018 | 3.63 nM | 0.38 | – | – | – | – | COc1cccc(F)c1-c1cccc2c(N)c3c(nc12)CN(C1CC1)C3=O (atropisomer, axis not shown; (P))
13 | – | 0.289 nM | – | −0.11 | 0.23 | – | – | COc1cccc(F)c1-c1cccc2c(N)c3c(nc12)CN(C1CCC1)C3=O (single isomer, unassigned) [Example 129, 9-Amino-2-cyclobutyl-5-((P)-2-fluoro-6-methoxyphenyl)-2,3-dihydropyrrolo[3,4-b]quinolin-1-one]
14 | – | 9.21 nM | – | – | – | 0.002 | 0.23 | COc1cccc(F)c1-c1cccc2c(N)c3c(nc12)CN(C1CCC1)C3=O (single isomer, unassigned) [Example 130, 9-Amino-2-cyclobutyl-5-((M)-2-fluoro-6-methoxyphenyl)-2,3-dihydropyrrolo[3,4-b]quinolin-1-one]
15 | −0.043 | 5.46 nM | 0.21 | – | – | – | – | COc1cccc(C#N)c1-c1cccc2c(N)c3c(nc12)CN(C1CCC1)C3=O [2-(9-Amino-2-cyclobutyl-1-oxo-2,3-dihydro-1H-pyrrolo[3,4-b]quinolin-5-yl)-3-methoxybenzonitrile]
16 | −0.02 | 6.2 nM | 0.21 | – | – | – | – | N#Cc1ccc(F)cc1-c1cccc2c(N)c3c(nc12)CN(C1CCC1)C3=O [2-(9-Amino-2-cyclobutyl-1-oxo-2,3-dihydro-1H-pyrrolo[3,4-b]quinolin-5-yl)-4-fluorobenzonitrile]
17 | −0.024 | 4.19 nM | 0.11 | – | – | – | – | N#Cc1cc(F)ccc1-c1cccc2c(N)c3c(nc12)CN(C1CCC1)C3=O [2-(9-Amino-2-cyclobutyl-1-oxo-2,3-dihydro-1H-pyrrolo[3,4-b]quinolin-5-yl)-5-fluorobenzonitrile]
18 | −0.016 | 0.905 nM | 0.18 | – | – | – | – | COc1cccc(-c2cccc3c(N)c4c(nc23)CN(C2CCC2)C4=O)c1C#N [2-(9-Amino-2-cyclobutyl-1-oxo-2,3-dihydro-1H-pyrrolo[3,4-b]quinolin-5-yl)-6-methoxybenzonitrile]
19 | 0.062 | 5.75 nM | 0.27 | – | – | – | – | N#Cc1ccccc1-c1cccc2c(N)c3c(nc12)CN(C1CCCC1)C3=O [2-(9-Amino-2-cyclopentyl-1-oxo-2,3-dihydro-1H-pyrrolo[3,4-b]quinolin-5-yl)-benzonitrile]
20 | −0.064 | 16.3 nM | 0.087 | – | – | – | – | N#Cc1ccccc1-c1cccc2c(N)c3c(nc12)CN(C1CC1)C3=O [2-(9-Amino-2-cyclopropyl-1-oxo-2,3-dihydro-1H-pyrrolo[3,4-b]quinolin-5-yl)-benzonitrile]
21 | −0.038 | 15.6 nM | 0.17 | – | – | – | – | N#Cc1ccc(-c2cccc3c(N)c4c(nc23)CN(C2CCC2)C4=O)cn1 [5-(9-Amino-2-cyclobutyl-1-oxo-2,3-dihydro-1H-pyrrolo[3,4-b]quinolin-5-yl)-pyridine-2-carbonitrile]
22 | 0.005 | 2.39 nM | 0.15 | – | – | – | – | N#Cc1ccc(-c2cccc3c(N)c4c(nc23)CN(C2CCC2)C4=O)nc1 [6-(9-Amino-2-cyclobutyl-1-oxo-2,3-dihydro-1H-pyrrolo[3,4-b]quinolin-5-yl)-nicotinonitrile]
23 | −0.078 | – | 0.15 | – | – | – | – | COc1cccc(C#N)c1-c1cccc2c(N)c3c(nc12)CN(C1CC1)C3=O [Example 139, 2-(9-Amino-2-cyclopropyl-1-oxo-2,3-dihydro-1H-pyrrolo[3,4-b]quinolin-5-yl)-3-methoxybenzonitrile]
